The test deals with T1, Estrogen Receptor (ERα) in MCF-7 human ductal carcinoma breast cell line (Homo sapiens, UniProt P03372).
T1 construct: endogenous in cells; host or cells: MCF-7
T1 sequence (P03372 1-595): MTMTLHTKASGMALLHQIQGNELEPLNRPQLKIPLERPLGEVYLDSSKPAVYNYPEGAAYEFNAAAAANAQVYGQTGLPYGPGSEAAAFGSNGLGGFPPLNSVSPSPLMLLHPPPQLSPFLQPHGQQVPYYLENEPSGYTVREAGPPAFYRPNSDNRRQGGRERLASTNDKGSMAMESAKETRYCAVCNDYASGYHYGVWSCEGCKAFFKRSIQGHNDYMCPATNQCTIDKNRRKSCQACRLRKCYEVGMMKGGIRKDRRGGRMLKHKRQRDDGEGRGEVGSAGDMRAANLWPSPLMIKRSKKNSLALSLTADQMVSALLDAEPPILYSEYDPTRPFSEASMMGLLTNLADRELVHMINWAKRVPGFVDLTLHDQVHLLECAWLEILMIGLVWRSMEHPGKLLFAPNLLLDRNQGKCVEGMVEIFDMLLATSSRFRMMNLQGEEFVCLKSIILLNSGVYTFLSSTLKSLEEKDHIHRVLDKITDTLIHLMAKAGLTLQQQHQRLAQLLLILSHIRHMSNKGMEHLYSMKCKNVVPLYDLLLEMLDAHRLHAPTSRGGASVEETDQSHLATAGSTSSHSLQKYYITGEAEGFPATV
As to the kind of experiment: MCF-7 ER degradation assay (cell based immuno-fluorescence). Conditions: MCF-7 cells; for ER degradation ≥ 90% at 0.3 μM: ER degradation by fulvestrant at 0.3 μM is defined as 100%; for DC50: 18-22 hours incubation, 50% reduction of ERα expression, single experiment or average of two or more, read-out: MCF-7 ER degradation IC50. The method, boiled down:
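MCF-7 human ductal carcinoma breast cells were seeded at 3.75×10^4 cells per mL (40 μL per well) in 384 well plates with phenol red free DMEM containing 2 mM L-Glutamine and 5% (v/v) Charcoal/Dextran treated foetal calf serum. After overnight culture, compounds were acoustically dispensed, incubated 18-22 hours, then cells were formaldehyde-fixed and immunostained for ERα.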

The values that follow come from patent publication US10519152B2, “Compounds and their use in treating cancer” (AstraZeneca AB, priority 2017, dated 2019).

With `Cc1ncsc1-c1ccc(CNC(=O)[C@@H]2C[C@@H](O)CN2C(=O)[C@@H](NC(=O)COCCOCCOCCOCCOc2cc(F)c([C@@H]3c4[nH]c5ccccc5c4C[C@@H](C)N3CC(C)(C)F)c(F)c2)C(C)(C)C)cc1` [Example 37, (2S,4R)-1-((S)-2-(tert-Butyl)-17-(3,5-difluoro-4-((1R,3R)-2-(2-fluoro-2-methylpropyl)-3-methyl-2,3,4,9-tetrahydro-1H-pyrido[3,4-b]indol-1-yl)phenoxy)-4-oxo-6,9,12,15-tetraoxa-3-azaheptadecanoyl)-4-hydroxy-N-(4-(4-methylthiazol-5-yl)benzyl)pyrrolidine-2-carboxamide], the “ER degradation ≥ 90% at 0.3 μM” value is on record as “••” and the DC50 was 3 nM.

On to `Cc1ncsc1-c1ccc(CNC(=O)C2CC(O)CN2C(=O)C(NC(=O)COCCOc2cc(F)c(C3c4[nH]c5ccccc5c4CC(C)N3CC(C)(C)F)c(F)c2)C(C)(C)C)cc1` [Example 40, (2S,4R)-1-((S)-2-(2-(2-(3,5-Difluoro-4-((1R,3R)-2-(2-fluoro-2-methylpropyl)-3-methyl-2,3,49-tetrahydro-1H-pyrido[3,4-b]indol-1-yl)phenoxy)ethoxy)acetamido)-3,3-dimethylbutanoyl)-4-hydroxy-N-(4-(4-methylthiazol-5-yl)benzyl)pyrrolidine-2-carboxamide], for which the “ER degradation ≥ 90% at 0.3 μM” value was “•” and the DC50 was 0.6 nM.

In the case of `Cc1ncsc1-c1ccc(CNC(=O)[C@@H]2C[C@@H](O)CN2C(=O)[C@@H](NC(=O)COCCCCCN(CCOc2cc(F)c([C@@H]3c4[nH]c5ccccc5c4C[C@@H](C)N3CC(C)(C)F)c(F)c2)C(=O)OCc2ccccc2)C(C)(C)C)cc1` [Example 45, Benzyl (2-(3,5-difluoro-4-((1R,3R)-2-(2-fluoro-2-methylpropyl)-3-methyl-2,3,4,9-tetrahydro-1H-pyrido[3,4-b]indol-1-yl)phenoxy)ethyl)(5-(2-(((S)-1-((2S,4R)-4-hydroxy-2-((4-(4-methylthiazol-5-yl)benzyl)carbamoyl)pyrrolidin-1-yl)-3,3-dimethyl-1-oxobutan-2-yl)amino)-2-oxoethoxy)pentyl)carbamate], the “ER degradation ≥ 90% at 0.3 μM” value was “••” and the DC50 came to 12 nM.

For the molecule `Cc1ncsc1-c1ccc(CNC(=O)[C@@H]2C[C@@H](O)CN2C(=O)[C@@H](NC(=O)COCCCC2CN(CCOc3cc(F)c([C@@H]4c5[nH]c6ccccc6c5C[C@@H](C)N4CC(C)(C)F)c(F)c3)C2)C(C)(C)C)cc1` [Example 47, (2S,4R)-1-((S)-2-(2-(3-(1-(2-(3,5-difluoro-4-((1R,3R)-2-(2-fluoro-2-methylpropyl)-3-methyl-2,3,4,9-tetrahydro-1H-pyrido[3,4-b]indol-1-yl)phenoxy)ethyl)azetidin-3-yl)propoxy)acetamido)-3,3-dimethylbutanoyl)-4-hydroxy-N-(4-(4-methylthiazol-5-yl)benzyl)pyrrolidine-2-carboxamide], the “ER degradation ≥ 90% at 0.3 μM” value is recorded as “•” and the DC50 was determined as 0.6 nM.

For `Cc1ncsc1-c1ccc(CNC(=O)[C@@H]2C[C@@H](O)CN2C(=O)[C@@H](NC(=O)COCCCCCNCCOc2cc(F)c([C@@H]3c4[nH]c5ccccc5c4C[C@@H](C)N3CC(C)(C)F)c(F)c2)C(C)(C)C)cc1` [Example 48, (2S,4R)-1-((S)-2-(2-((5-((2-(3,5-difluoro-4-((1R,3R)-2-(2-fluoro-2-methylpropyl)-3-methyl-2,3,4,9-tetrahydro-1H-pyrido[3,4-b]indol-1-yl)phenoxy)ethyl)amino)pentyl)oxy)acetamido)-3,3-dimethylbutanoyl)-4-hydroxy-N-(4-(4-methylthiazol-5-yl)benzyl)pyrrolidine-2-carboxamide], the “ER degradation ≥ 90% at 0.3 μM” value is on record as “•” and the DC50 is 1.8 nM.

For the molecule `Cc1ncsc1-c1ccc(CNC(=O)[C@@H]2C[C@@H](O)CN2C(=O)[C@@H](NC(=O)COCCCCCN(C)CCOc2cc(F)c([C@@H]3c4[nH]c5ccccc5c4C[C@@H](C)N3CC(C)(C)F)c(F)c2)C(C)(C)C)cc1` [Example 49, (2S,4R)-1-((S)-2-(2-((5-((2-(3,5-difluoro-4-((1R,3R)-2-(2-fluoro-2-methylpropyl)-3-methyl-2,3,4,9-tetrahydro-1H-pyrido[3,4-b]indol-1-yl)phenoxy)ethyl)(methyl)amino)pentyl)oxy)acetamido)-3,3-dimethylbutanoyl)-4-hydroxy-N-(4-(4-methylthiazol-5-yl)benzyl)pyrrolidine-2-carboxamide], the “ER degradation ≥ 90% at 0.3 μM” value is “•” and the DC50 was found to be 0.9 nM.

For the molecule `Cc1ncsc1-c1ccc(CNC(=O)[C@@H]2C[C@@H](O)CN2C(=O)[C@@H](NC(=O)COCCCCCCOc2cc(F)c([C@@H]3c4[nH]c5ccccc5c4C[C@@H](C)N3CC(C)(C)F)c(F)c2)C(C)(C)C)cc1` [Example 51, (2S,4R)-1-((S)-2-(2-((6-(3,5-difluoro-4-((1R,3R)-2-(2-fluoro-2-methylpropyl)-3-methyl-2,3,4,9-tetrahydro-1H-pyrido[3,4-b]indol-1-yl)phenoxy)hexyl)oxy)acetamido)-3,3-dimethylbutanoyl)-4-hydroxy-N-(4-(4-methylthiazol-5-yl)benzyl)pyrrolidine-2-carboxamide], the “ER degradation ≥ 90% at 0.3 μM” value is reported as “•” and the DC50 was found to be 6.8 nM.

For the molecule `Cc1ncsc1-c1ccc(CNC(=O)[C@@H]2C[C@@H](O)CN2C(=O)[C@@H](NC(=O)COCCc2ccc(COc3cc(F)c([C@@H]4c5[nH]c6ccccc6c5C[C@@H](C)N4CC(C)(C)F)c(F)c3)cc2)C(C)(C)C)cc1` [Example 53, (2S,4R)-1-((S)-2-(2-(4-((3,5-difluoro-4-((1R,3R)-2-(2-fluoro-2-methylpropyl)-3-methyl-2,3,4,9-tetrahydro-1H-pyrido[3,4-b]indol-1-yl)phenoxy)methyl)phenethoxy)acetamido)-3,3-dimethylbutanoyl)-4-hydroxy-N-(4-(4-methylthiazol-5-yl)benzyl)pyrrolidine-2-carboxamide], the “ER degradation ≥ 90% at 0.3 μM” value is recorded as “•” and the DC50 was found to be 3.5 nM.

As for `Cc1ncsc1-c1ccc(CNC(=O)[C@@H]2C[C@@H](O)CN2C(=O)[C@@H](NC(=O)COCCOCCOCCOCCOCCOCC(=O)Nc2ccc([C@@H]3c4[nH]c5ccccc5c4C[C@@H](C)N3CC(C)(C)F)cc2)C(C)(C)C)cc1` [Example 54, N^1-(4-((1R,3R)-2-(2-fluoro-2-methylpropyl)-3-methyl-2,3,4,9-tetrahydro-1H-pyrido[3,4-b]indol-1-yl)phenyl)-N^18—((S)-1-((2S,4R)-4-hydroxy-2-(4-(4-methylthiazol-5-yl)benzylcarbamoyl)pyrrolidin-1-yl)-3,3-dimethyl-1-oxobutan-2-yl)-2,5,8,11,14,17-hexaoxaoctadecane-1,18-dicarboxamide, Trifluoroacetic Acid], the “ER degradation ≥ 90% at 0.3 μM” value was “••” and the DC50 is 1.7 nM.

`Cc1ncsc1-c1ccc(CNC(=O)[C@@H]2C[C@@H](O)CN2C(=O)[C@@H](NC(=O)COCCOCCOCCOc2cc(F)c([C@@H]3c4[nH]c5ccccc5c4C[C@@H](C)N3C[C@H](C)CO)c(F)c2)C(C)(C)C)cc1` [Example 101, (2S,4R)-1-((S)-2-(tert-butyl)-14-(3,5-difluoro-4-((1R,3R)-2-((S)-3-hydroxy-2-methylpropyl)-3-methyl-2,3,4,9-tetrahydro-1H-pyrido[3,4-b]indol-1-yl)phenoxy)-4-oxo-6,9,12-trioxa-3-azatetradecanoyl)-4-hydroxy-N-(4-(4-methylthiazol-5-yl)benzyl)pyrrolidine-2-carboxamide]: the “ER degradation ≥ 90% at 0.3 μM” value is on record as “•” and the DC50 was found to be 1.8 nM.

Turning to `Cc1ncsc1-c1ccc([C@@H](CN)NC(=O)[C@@H]2C[C@@H](O)CN2C(=O)[C@@H](NC(=O)COCCOCCOCCOc2cc(F)c([C@@H]3c4[nH]c5ccccc5c4C[C@@H](C)N3CC(C)(C)F)c(F)c2)C(C)(C)C)cc1` [Example 106, (2S,4R)—N-[(1S)-2-amino-1-[4-(4-methylthiazol-5-yl)phenyl]ethyl]-1-[(2S)-2-[[2-[2-[2-[2-[3,5-difluoro-4-[(1R,3R)-2-(2-fluoro-2-methyl-propyl)-3-methyl-1,3,4,9-tetrahydropyrido[3,4-b]indol-1-yl]phenoxy]ethoxy]ethoxy]ethoxy]acetyl]amino]-3,3-dimethyl-butanoyl]-4-hydroxy-pyrrolidine-2-carboxamide], the “ER degradation ≥ 90% at 0.3 μM” value is “•” and the DC50 was 0.9 nM.

In the case of `Cc1ncsc1-c1ccc([C@@H](CN(C)C)NC(=O)[C@@H]2C[C@@H](O)CN2C(=O)[C@@H](NC(=O)COCCOCCOCCOc2cc(F)c([C@@H]3c4[nH]c5ccccc5c4C[C@@H](C)N3CC(C)(C)F)c(F)c2)C(C)(C)C)cc1` [Example 107, (2S,4R)-1-[(2S)-2-[[2-[2-[2-[2-[3,5-Difluoro-4-[(1R,3R)-2-(2-fluoro-2-methyl-propyl)-3-methyl-1,3,4,9-tetrahydropyrido[3,4-b]indol-1-yl]phenoxy]ethoxy]ethoxy]ethoxy]acetyl]amino]-3,3-dimethyl-butanoyl]-N-[(1S)-2-(dimethylamino)-1-[4-(4-methylthiazol-5-yl)phenyl]ethyl]-4-hydroxy-pyrrolidine-2-carboxamide], the “ER degradation ≥ 90% at 0.3 μM” value is listed as “••” and the DC50 amounted to 1 nM.
